By IC50 is commonly meant the concentration at which inhibition is half-maximal.

Results on four compounds are retold here after patent US10287270B2, “Amino pyrimidine SSAO inhibitors” (ELI LILLY AND COMPANY, priority 2016, dated 2019).

Series [1] has as its target human recombinant SSAO (hSSAO) (Homo sapiens (Human), UniProt Q16853). Description: SSAO/VAP-1 in vitro activity, MAO-Glo assay, recombinant SSAO. Format: biochemical. As to conditions: substrate 10 μM, mean ± SEM, read-out: hSSAO Inhib Rel IC50. The procedure: Amine oxidase activity of recombinant SSAO, MAOa, and MAOb isoforms are measured using the MAO-Glo™ assay kit from Promega (V1402). Test compounds (with DMSO as vehicle, 0.5% v/v for SSAO) and the enzyme are incubated for 10 mins at room temperature before the addition of the luminogenic substrate. The substrate concentration is 10 μM for human recombinant SSAO. The assays are conducted in a pH 7.4 buffer (50 mM HEPES, 120 mM NaCl, 5 mM KCl, 2 mM CaCl2, 1.4 mM MgCl2, 0.001% Tween-20) in a well-plate. Oxidation of the substrate is conducted for 2 hrs before the addition of detecting reagent according the manufacture's protocol. The IC50 value of the tested compounds is calculated by fitting the dose response curve using a 4-parameter non-linear regression routine.

In series [2] the test system is Male C57BL/6N mice fed 3H diet. Kind of series: Mouse model of NASH and fibrosis induced by 3H diet. The conditions noted are these: for Hepatic inflammation Score (0-3) Left / Macrovesicular vaculation Score (0-3) Left / Perisinusoidal fibrosis Score (0-3) Left: left lobe; for Hepatic inflammation Score (0-3) Right / Macrovesicular vaculation Score (0-3) Right / Perisinusoidal fibrosis Score (0-3) Right: right lobe. Format: in vivo. The procedure:
Male C57BL/6N mice are fed with D09100301 diet (Research Diets, 40% fat, 2% cholesterol, 24% fructose, (the, high fat, high cholesterol and high fructose, the “3H diet”) for 150 days. Each mouse is then singly housed after 5 days for an acclimation period. Plasma alanine aminotransferase (ALT) and cytokeratin 18 (CK18) are measured. After one week of recovery, the mice are randomized into 5 groups based on their ALT values, CK18 values, and body weight. […] Blood is collected from mice treated with the compound of Example 6 for 76 days 2 hours after the last dose. Compound levels in the plasma are analyzed by mass spectroscopy. […] At the completion of the study, the animals are sacrificed and their livers excised. Two sections of the left and right lobes are fixed in neutral buffered 10% formalin. Liver tissue slides are stained with hematoxylin and eosin (H&E), Sirius red, and Masson's Trichrome to prepare slides for pathological analysis. All specimens are examined microscopically and scored as a modified Brunt score NASH Activity Score. Scores are based on the grading scheme and end-points as described in Brunt E. M, et al., “Histopathology of nonalcoholic fatty liver disease,” World J. of Gastroenterol, 2010, 16(42), 5286-5296. Group means are then calculated for each individual end-point. The following endpoints are used to characterize the fast food model of NASH in mice as modified from NASH endpoints (See Brunt, E. M. “Histopathology of nonalcoholic fatty liver disease,” Clin Liver Dis., 2009, 13, 533-544 and Brunt, E. M, et al., “Nonalcoholic steatohepatitis: A proposal for grading and staging the histological lesions”, Am J Gastroenterology, 1999, 94(9), 2467-2474.

The nature of series [3]: Plasma compound levels by mass spectroscopy in 3H diet mice. Format: in vivo, mouse. As to conditions: for concentration at 2 h: male, C57BL/6N, plasma, read-out: Plasma Compound Level. The procedure:
Male C57BL/6N mice are fed with D09100301 diet (Research Diets, 40% fat, 2% cholesterol, 24% fructose, (the, high fat, high cholesterol and high fructose, the “3H diet”) for 150 days. Each mouse is then singly housed after 5 days for an acclimation period. Plasma alanine aminotransferase (ALT) and cytokeratin 18 (CK18) are measured. After one week of recovery, the mice are randomized into 5 groups based on their ALT values, CK18 values, and body weight. […] Blood is collected from mice treated with the compound of Example 6 for 76 days 2 hours after the last dose. Compound levels in the plasma are analyzed by mass spectroscopy.

Series [4] deals with SSAO activity in rat plasma and liver. Description: SSAO target engagement in rat plasma and liver. The conditions noted are these: for SSAO Activity (%) Liver 24 hour / SSAO Activity (%) Plasma 2 hour / SSAO Activity (%) Plasma 24 hour: mean ± SEM, n = 6. The class given is in vivo. Here is the method:
The SSAO activity in rat plasma and liver tissues are measured using the MAO-Glo™ assay kit from Promega (V1402). The residual SSAO activity in rats after compound treatment is estimated by measuring the total amine oxidase activity in plasma or liver lysates that are insensitive to the presence of the MAO inhibitor Clogyline and Pargyline. Rats are administered the compound of Example 2 at the doses of 15, 3, 0.6, 0.12, 0.025, 0.005 mg/kg. The control group is administered with the same volume (2 ml/kg) of the dosing vehicle (hydroxyethyl cellulose 1% w/v, 0.25% Tween 80). Plasma and liver at 2 or 24 hours post compound treatment are harvested and stored at −78° C. until analysis. Tissue lysates are prepared by homogenization in a lysis buffer (20 mM HEPES, pH 7.4, 150 mM NaCl, 1 mM EDTA, 1 mM EGTA, 1% Triton X-100 and 1× Roche Complete protease inhibitor tablet). Tissue particles are removed by centrifugation at 12,000 rpm at 4° C. for 30 minutes. 40 μl of plasma or liver lysates is incubated with Clogyline (10 μM) and Pargyline (10 μM) for 20 minutes at room temperature before the addition of the luminogenic substrate (50 μM) for 60 minutes. The product generated is quantified according to the manufacture's procedure. The fraction of activity that is insensitive to the presence of the MAO inhibitors is used as the surrogate for the residual SSAO activity. The compound of Example 2 was evaluated in the protocol essentially as described above administered at various doses.

[5] abbreviates: mouse 3H diet, 0.6 mg/kg once daily, mean ± SEM.
Setting [6] is: mouse 3H diet, 0.6 mg/kg, mean ± SEM.
Where [7] appears, read: mouse 3H diet, 2 mg/kg once daily, mean ± SEM.
The mark [8] stands for this setting: mouse 3H diet, 2 mg/kg, mean ± SEM.
[9] abbreviates: mouse 3H diet, 6 mg/kg once daily, mean ± SEM.
Where [10] appears, read: mouse 3H diet, 6 mg/kg, mean ± SEM.
[11] abbreviates: mouse 3H diet, 20 mg/kg once daily, mean ± SEM.
Setting [12] is: mouse 3H diet, 20 mg/kg, mean ± SEM.

Structures can show the parent of a compound that is named as a salt. Where two headings read alike, the source gives them in different places.

human recombinant SSAO (hSSAO), sequence (Q16853 whole entry, canonical isoform): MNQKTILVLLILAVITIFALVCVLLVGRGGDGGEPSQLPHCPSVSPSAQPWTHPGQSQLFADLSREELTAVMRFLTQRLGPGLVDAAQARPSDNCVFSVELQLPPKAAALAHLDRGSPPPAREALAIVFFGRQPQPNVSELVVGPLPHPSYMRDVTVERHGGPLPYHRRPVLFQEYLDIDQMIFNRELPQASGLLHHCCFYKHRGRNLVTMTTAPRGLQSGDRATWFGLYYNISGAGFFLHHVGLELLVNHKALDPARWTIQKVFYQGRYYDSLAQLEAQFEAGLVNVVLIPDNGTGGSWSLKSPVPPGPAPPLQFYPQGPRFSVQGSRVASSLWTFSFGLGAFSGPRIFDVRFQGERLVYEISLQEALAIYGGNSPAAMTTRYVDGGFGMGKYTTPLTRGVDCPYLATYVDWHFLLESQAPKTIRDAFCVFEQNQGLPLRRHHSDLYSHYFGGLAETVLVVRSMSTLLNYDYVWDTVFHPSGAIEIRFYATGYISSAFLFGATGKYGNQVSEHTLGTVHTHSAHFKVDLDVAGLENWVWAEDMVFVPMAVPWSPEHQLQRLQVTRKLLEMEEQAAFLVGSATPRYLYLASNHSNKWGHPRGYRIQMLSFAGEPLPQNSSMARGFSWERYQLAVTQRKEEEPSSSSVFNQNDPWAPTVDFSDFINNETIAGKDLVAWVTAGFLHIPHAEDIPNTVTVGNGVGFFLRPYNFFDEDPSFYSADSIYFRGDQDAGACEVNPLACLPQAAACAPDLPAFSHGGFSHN

In the case of `COC1CCN(c2ncc(OC/C(=C/F)CN)cn2)CC1` [Example 3, (E)-3-Fluoro-2-[[2-(4-methoxy-1-piperidyl)pyrimidin-5-yl]oxymethyl]prop-2-en-1-amine, Dihydrochloride], in series [1], the IC50 was found to be 12 ± 1 nM.
With `Cl.Cl.NC/C(=C\F)COc1cnc(N2CC[C@H](O)C2)nc1` [Example 6, (3 S)-1-[5-[(E)-2-(Aminomethyl)-3-fluoro-allyloxy]pyrimidin-2-yl]pyrrolidin-3-ol; Dihydrochloride], the IC50 in series [1] turned out to be 52 ± 5 nM. The hepatic inflammation result in series [2] (20 mg/kg) is “significant decrease”. In series [2] (20 mg/kg), the macrovesicular vaculation result is “significant decrease”. In addition, in series [2] (20 mg/kg), the perisinusoidal fibrosis result is “significant decrease”. Moreover, the “triglyceride levels in blood” value in series [2] (6 and 20 mg/kg) was “decreased”. In addition, the ALT result is recorded as “significant decrease” in series [2] (all groups of treated mice); 530 ± 45 IU/L in series [2] (setting [5]); 483 ± 44 IU/L in series [2] (setting [7]); 495 ± 25 IU/L in series [2] (setting [9]); 466 ± 37 IU/L in series [2] (setting [11]). Further, the “Plasma TG” value in series [2] (setting [5]) turned out to be 55 ± 6 mg/dL; in series [2] (setting [7]), 70 ± 11 mg/dL; in series [2] (setting [9]), 46 ± 4 mg/dL; in series [2] (setting [11]) it was 45 ± 5 mg/dL. Also, the “Hepatic inflammation Score (0-3) Left” value in series [2] (setting [6]) was determined as 2.6 ± 0.1; in series [2] (setting [8]) it was 2.5 ± 0.1; in series [2] (setting [10]), 2.5 ± 0.2; in series [2] (setting [12]), 2.1 ± 0.1. Also, the “Macrovesicular vaculation Score (0-3) Left” value is 2.5 ± 0.1 in series [2] (setting [6]), 2.5 ± 0.1 in series [2] (setting [8]), 2.9 ± 0.1 in series [2] (setting [10]) and 2.4 ± 0.2 in series [2] (setting [12]). Besides, the “Perisinusoidal fibrosis Score (0-3) Left” value amounted to 2.4 ± 0.2 in series [2] (setting [6]), 2.5 ± 0.2 in series [2] (setting [8]), 2.6 ± 0.2 in series [2] (setting [10]) and 1.9 ± 0.2 in series [2] (setting [12]). Besides, the “Hepatic inflammation Score (0-3) Right” value in series [2] (setting [6]) is given as 2.5 ± 0.1; in series [2] (setting [8]) it was 2.6 ± 0.1; in series [2] (setting [10]), 2.6 ± 0.2; in series [2] (setting [12]), 2.1 ± 0.1. Further, the “Macrovesicular vaculation Score (0-3) Right” value in series [2] (setting [6]) came out at 2.6 ± 0.1; in series [2] (setting [8]), 2.7 ± 0.1; in series [2] (setting [10]), 2.7 ± 0.1; in series [2] (setting [12]), 2.3 ± 0.1. Further, the “Perisinusoidal fibrosis Score (0-3) Right” value in series [2] (setting [6]) was 1.9 ± 0.2; in series [2] (setting [8]) it was 1.8 ± 0.2; in series [2] (setting [10]) it was 2.1 ± 0.3; in series [2] (setting [12]) it was 1.5 ± 0.2. Also, the concentration at 2 h in series [3] (mouse, 2 mg/kg once daily, 76 days, 2 hours after last dose, mean ± SEM) was 163 ± 21 ng/mL; in series [3] (mouse, 6 mg/kg once daily, 76 days, 2 hours after last dose, mean ± SEM), 560 ± 29 ng/mL; in series [3] (mouse, 20 mg/kg once daily, 76 days, 2 hours after last dose, mean ± SEM) it was 2120 ± 219 ng/mL. Besides, the “Plasma Compound Level” value in series [3] (mouse, 0.6 mg/kg once daily, 76 days, 2 hours after last dose, mean ± SEM) is 66. ± 5 ng/ml. Further, the plasma compound levels entry in series [3] (treated mice, all doses) was “dose-dependent increase”.
Consider `Cl.Cl.NC/C(=C\F)COc1cnc(N2CCC(O)CC2)nc1` [Example 2, 1-[5-[(E)-2-(Aminomethyl)-3-fluoro-allyloxy]pyrimidin-2-yl]piperidin-4-ol Dihydrochloride], for which the “SSAO Activity (%) Liver 24 hour” value in series [4] (0.005 mg/kg) is 75 ± 18%; in series [4] (0.025 mg/kg), 68 ± 14%; in series [4] (0.12 mg/kg) it was 45 ± 8%; in series [4] (0.6 mg/kg) it was 16.2 ± 2.9%; in series [4] (3 mg/kg), 7.1 ± 1.7%; in series [4] (15 mg/kg) it was 9.6 ± 2.6%. Moreover, the “SSAO Activity (%) Plasma 2 hour” value in series [4] (0.005 mg/kg) is 31 ± 3%; in series [4] (0.025 mg/kg), 21 ± 1%; in series [4] (0.12 mg/kg), 7 ± 1%; in series [4] (0.6 mg/kg), 4.3 ± 0.8%; in series [4] (3 mg/kg), 3.6 ± 1.0%; in series [4] (15 mg/kg) it was −0.6 ± 0.3%. Besides, the “SSAO Activity (%) Plasma 24 hour” value in series [4] (0.005 mg/kg) came out at 70 ± 7%; in series [4] (0.025 mg/kg) it was 55 ± 9%; in series [4] (0.12 mg/kg), 35 ± 4%; in series [4] (0.6 mg/kg), 16.3 ± 2.6%; in series [4] (3 mg/kg), 8.8 ± 1.3%; in series [4] (15 mg/kg), 6.6 ± 1.8%. Besides, in series [4] (doses 0.005-15 mg/kg), the “SSAO activity in rat plasma and liver” value is reported as “dose-dependently inhibits”.
As for `CO[C@H]1CCN(c2ncc(OC/C(=C/F)CN)cn2)C1` [Example 5, (E)-3-Fluoro-2-[[2-[(3S)-3-methoxypyrrolidin-1-yl]pyrimidin-5-yl]oxymethyl]prop-2-en-1-amine], the IC50 in series [1] was 32 ± 7 nM.
